According to US12433835B2, “Cosmetic composition and treatment for treating skin sagging” (Sederma, priority 2020, dated 2025):

Tested on: Fibroblasts
Assay: Contraction of collagen lattice by MGO-stressed fibroblasts
Assay type: cell-based
Details: MGO contact 2 days, with or without extract at 0.5%; control without MGO = 100%; n=3
Text: The contraction function of fibroblasts is important for ensuring a good elasticity to the skin. The application on fibroblasts of the glycating substance (MGO: methylglyoxal) allows to mimic in accelerate the loss of contractility of fibroblasts occurring during aging. Fibroblasts were brought into contact with the MGO for 2 days, in nontoxic quantity, with or without the extract according to the invention. After this contact, the cells were included in a collagen gel to form a dermis equivalent called lattice. Fibroblasts anchor themselves to the collagens and begin to contract the gel like they do in the skin. This contraction was followed after 16 h and measured using an ImageQuant LAS4000 imager by following the modification on the gel surface.

CC(=O)C=O [MGO, methylglyoxal]
Gel contraction at 16 h (%): 59.9%
